Data from patent US20020026053A1, “Novel 3-(substituted) -2- indolinones compounds and use thereof as inhibitors of protein kinase activity” (priority 1997, published 2002).

Test system: FLK-1 receptor
Test: FLK-1 Assay (cellular/catalytic ELISA, VEGF-stimulated phosphotyrosine)
Format: cell-based
Parameters: concentration or dose not given beside the values
How it was run: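 NIH3T3 C7#3 cells engineered to express Flk-1 were serum-starved overnight (0.1% FBS), then exposed to compound for 2 h at 37 °C (final dilution 1:200, 0.5% DMSO) before VEGF stimulation. Lysates captured on anti-FLK-1 antiserum plates; phosphotyrosine detected by UB40 antibody/POD-ABTS ELISA versus untreated controls.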

Compound	Flk Kinase % Inhibition (P.110) [%]
CCOc1cccc(C=C2C(=O)Nc3ccc(S(=O)(=O)N4CCOCC4)cc32)c1O [10734/F02]	6.2
O=C1Nc2ccc(S(=O)(=O)N3CCOCC3)cc2C1=Cc1cc(Cl)cc(Cl)c1O [10734/F03]	4.2
O=C1Nc2ccc(S(=O)(=O)N3CCOCC3)cc2C1=Cc1cc(Cl)ccc1O [10734/F04]	−2.6
CCN(CC)c1ccc(C=C2C(=O)Nc3ccc(S(=O)(=O)N4CCOCC4)cc32)c(O)c1 [10734/F05]	9.8
O=C1Nc2ccc(S(=O)(=O)N3CCOCC3)cc2C1=Cc1ccc([N+](=O)[O-])cc1 [10734/F06]	11.0
O=C1Nc2ccc(S(=O)(=O)N3CCOCC3)cc2C1=Cc1cc(Br)cc(Br)c1O [10734/F07]	6.6
O=C1Nc2ccc(S(=O)(=O)N3CCOCC3)cc2C1=Cc1cccc(F)c1O [10734/F08]	4.8
O=C1Nc2ccc(S(=O)(=O)N3CCOCC3)cc2C1=Cc1ccc(O)c(Br)c1 [10734/F09]	−3.7
CC(C)(C)c1ccc(C=C2C(=O)Nc3ccc(S(=O)(=O)N4CCOCC4)cc32)cc1 [10734/F10]	14.8
O=C1Nc2ccc(S(=O)(=O)N3CCOCC3)cc2C1=Cc1ccc(Br)s1 [10734/F11]	13.3
CCOc1cccc(C=C2C(=O)Nc3ccc(CCCl)cc32)c1O [10734/G02]	1.5
O=C1Nc2ccc(CCCl)cc2C1=Cc1cc(Cl)cc(Cl)c1O [10734/G03]	18.7
O=C1Nc2ccc(CCCl)cc2C1=Cc1cc(Cl)ccc1O [10734/G04]	−1.1
CCN(CC)c1ccc(C=C2C(=O)Nc3ccc(CCCl)cc32)c(O)c1 [10734/G05]	7.4
O=C1Nc2ccc(CCCl)cc2C1=Cc1ccc([N+](=O)[O-])cc1 [10734/G06]	16.5
O=C1Nc2ccc(CCCl)cc2C1=Cc1cc(Br)cc(Br)c1O [10734/G07]	21.9
O=C1Nc2ccc(CCCl)cc2C1=Cc1cccc(F)c1O [10734/G08]	11.6
O=C1Nc2ccc(CCCl)cc2C1=Cc1ccc(O)c(Br)c1 [10734/G09]	8.5
CC(C)(C)c1ccc(C=C2C(=O)Nc3ccc(CCCl)cc32)cc1 [10734/G10]	10.8
O=C1Nc2ccc(CCCl)cc2C1=Cc1ccc(Br)s1 [10734/G11]	8.7
CCOc1cccc(C=C2C(=O)Nc3c(Br)cc(Br)c(C)c32)c1O [10734/H02]	0.5
Cc1c(Br)cc(Br)c2c1C(=Cc1cc(Cl)cc(Cl)c1O)C(=O)N2 [10734/H03]	4.6
Cc1c(Br)cc(Br)c2c1C(=Cc1cc(Cl)ccc1O)C(=O)N2 [10734/H04]	−1.3
